According to patent US11066363B2, “Substituted 6,11-dihydro-5H-benzo[B]carbazoles as inhibitors of ALK and SRPK” (Dana-Farber Cancer Institute, Inc., priority 2015, dated 2021):

Assays:
[1] = test system: EML4-ALK^G1202R transformed Ba/F3 cells; assay: Ba/F3 single point inhibition assay (MTS); type: cell-based; details: single dose 1 μM, 72 hours
[2] = molecular target: SRPK2 (Homo sapiens (Human), UniProt P78362); assay: SRPK2 inhibitory activity; type: biochemical
[3] = molecular target: SRPK1 (Homo sapiens (Human), UniProt Q96SB4); assay: SRPK1 inhibitory activity; type: biochemical
[4] = test system: EML4-ALK wt transformed Ba/F3 cells; assay: Ba/F3 single point inhibition assay (MTS); type: cell-based; details: single dose 1 μM, 72 hours
[5] = molecular target: EML4-ALK L1196M transformed Ba/F3 cells (Homo sapiens, UniProt Q9UM73, L1196M, cells depend on it); assay: Ba/F3 dose escalation MTS viability assay; details: read-out: IC50 L1196M, 72 hours
[6] = molecular target: EML4-ALK C1156Y transformed Ba/F3 cells (Homo sapiens, UniProt Q9UM73, C1156Y, cells depend on it); assay: Ba/F3 dose escalation MTS viability assay; type: cell-based; details: 72 hours
[7] = molecular target: EML4-ALK G1269A transformed Ba/F3 cells (Homo sapiens, UniProt Q9UM73, G1269A, cells depend on it); assay: Ba/F3 dose escalation MTS viability assay; type: cell-based; details: 72 hours
[8] = molecular target: EML4-ALK L1152R transformed Ba/F3 cells (Homo sapiens, UniProt Q9UM73, L1152R, cells depend on it); assay: Ba/F3 dose escalation MTS viability assay; type: cell-based; details: 72 hours
[9] = molecular target: EML4-ALK G1202R transformed Ba/F3 cells (Homo sapiens, UniProt Q9UM73, G1202R, cells depend on it); assay: Ba/F3 dose escalation MTS viability assay; type: cell-based; details: 72 hours
[10] = molecular target: EML4-ALK^WT transformed Ba/F3 cells (Homo sapiens, UniProt Q9UM73); assay: Ba/F3 dose escalation MTS viability assay; details: read-out: IC50 wt, 72 hours
[11] = molecular target: EML4-ALK S1206Y transformed Ba/F3 cells (Homo sapiens, UniProt Q9UM73, S1206Y, cells depend on it); assay: Ba/F3 dose escalation MTS viability assay; type: cell-based; details: 72 hours

| IC50 [3] [nM] | SMILES | Percent viability of untreated control, G1202R [1] [%] | Percent viability of untreated control, wt [4] [%] | also measured |
| --- | --- | --- | --- | --- |
| 2.66 | CCc1cc2c(cc1N1CCN(C)CC1)C(C)(C)c1[nH]c3cc(C#N)ccc3c1C2=O [Compound 19, 9-ethyl-6,6-dimethyl-8-(4-methylpiperazin-1-yl)-11-oxo-6,11-dihydro-5H-benzo[b]carbazole-3-carbonitrile] | 0.1 | 0.1 | IC50 [2]: 8.57 nM |
|  | CCc1cc2c(cc1N(C)CCN(C)C)C(C)(C)c1[nH]c3cc(C#N)ccc3c1C2=O [Compound 28, 8-((2 (dimethylamino)ethyl)(methyl)amino)-9-ethyl-6,6-dimethyl-11-oxo-6,11-dihydro-5H-benzo[b]carbazole-3-carbonitrile] | 7 | 2 |  |
|  | CCc1cc2c(cc1-c1cnn(C(C)(C)C(=O)N(C)C)c1)C(C)(C)c1[nH]c3cc(C#N)ccc3c1C2=O [Compound 35, 2-(4-(3-cyano-9-ethyl-6,6-dimethyl-11-oxo-6,11-dihydro-5H-benzo[b]carbazol-8-yl)-1H-pyrazol-1-yl)-N,N,2-trimethylpropanamide] | 0 | 0 |  |
|  | CCc1cc2c(cc1[C@H](O)CO)C(C)(C)c1[nH]c3cc(C#N)ccc3c1C2=O [Compound 23, (S)-8-(1,2-dihydroxyethyl)-9-ethyl-6,6-dimethyl-11-oxo-6,11-dihydro-5H-benzo[b]carbazole-3-carbonitrile] |  | 4 |  |
|  | CCc1cc2c(cc1-c1cccnc1)C(C)(C)c1[nH]c3cc(C#N)ccc3c1C2=O [Compound 15, 9-ethyl-6,6-dimethyl-11-oxo-8-(pyridin-3-yl)-6,11-dihydro-5H-benzo[b]carbazole-3-carbonitrile] | 3 | 1 |  |
|  | CCc1cc2c(cc1-c1cnn(CC(=O)NC)c1)C(C)(C)c1[nH]c3cc(C#N)ccc3c1C2=O [Compound 33, 2-(4-(3-cyano-9-ethyl-6,6-dimethyl-11-oxo-6,11-dihydro-5H-benzo[b]carbazol-8-yl)-1H-pyrazol-1-yl)-N-methylacetamide] | 0 | 0 |  |
| 3.01 | CCc1cc2c(cc1-c1cnn(C)c1)C(C)(C)c1[nH]c3cc(C#N)ccc3c1C2=O [Compound 7, 9-ethyl-6,6-dimethyl-8-(1-methyl-1H-pyrazol-4-yl)-11-oxo-6,11-dihydro-5H-benzo[b]carbazole-3-carbonitrile] | 1 | 1 | IC50 [2]: 12.4 nM |
|  | CCc1cc2c(cc1-c1ccc(N)nc1)C(C)(C)c1[nH]c3cc(C#N)ccc3c1C2=O [Compound 27, 8-(6-aminopyridin-3-yl)-9-ethyl-6,6-dimethyl-11-oxo-6,11-dihydro-5H-benzo[b]carbazole-3-carbonitrile] | 42 | 12 |  |
|  | CCc1cc2c(cc1-c1ccc(O)nc1)C(C)(C)c1[nH]c3cc(C#N)ccc3c1C2=O [Compound 26, 9-ethyl-8-(6-hydroxypyridin-3-yl)-6,6-dimethyl-11-oxo-6,11-dihydro-5H-benzo[b]carbazole-3-carbonitrile] | 12 | 4 |  |
|  | CCc1cc2c(cc1-c1cn[nH]c1)C(C)(C)c1[nH]c3cc(C#N)ccc3c1C2=O [Compound 8, 9-ethyl-6,6-dimethyl-11-oxo-8-(1H-pyrazol-4-yl)-6,11-dihydro-5H-benzo[b]carbazole-3-carbonitrile] | 1 | 0 |  |
| 2.61 | CCc1cc2c(cc1-c1ccncc1)C(C)(C)c1[nH]c3cc(C#N)ccc3c1C2=O [Compound 14] | 5 | 2 |  |
| 1.15 | CCc1cc2c(cc1-c1cc[nH]n1)C(C)(C)c1[nH]c3cc(C#N)ccc3c1C2=O [Compound 9, 9-ethyl-6,6-dimethyl-11-oxo-8-(1H-pyrazol-3-yl)-6,11-dihydro-5H-benzo[b]carbazole-3-carbonitrile] | 1 | 1 |  |
|  | CCc1cc2c(cc1N1CCOCC1)C(C)(C)c1[nH]c3cc(C#N)ccc3c1C2=O [Compound 20, 9-ethyl-6,6-dimethyl-8-morpholino-11-oxo-6,11-dihydro-5H-benzo[b]carbazole-3-carbonitrile] | 4 | 2 |  |
|  | CCc1cc2c(cc1C#N)C(C)(C)c1[nH]c3cc(C#N)ccc3c1C2=O [Compound 21, 9-ethyl-6,6-dimethyl-11-oxo-6,11-dihydro-5H-benzo[b]carbazole-3,8-dicarbonitrile] | 28 | 19 |  |
|  | CCc1cc2c(cc1N1CCNCC1)C(C)(C)c1[nH]c3cc(C#N)ccc3c1C2=O [Compound 18, 9-ethyl-6,6-dimethyl-11-oxo-8-(piperazin-1-yl)-6,11-dihydro-5H-benzo[b]carbazole-3-carbonitrile] | 7 | 1 |  |
| > 1000 | CCc1cc2c(cc1N1CCC(N(C)C)CC1)C(C)(C)c1[nH]c3cc(C#N)ccc3c1C2=O [Compound 17, 8-(4-(dimethylamino)piperidin-1-yl)-9-ethyl-6,6-dimethyl-11-oxo-6,11-dihydro-5H-benzo[b]carbazole-3-carbonitrile] | 9 | 2 | IC50 [5]: 10 nM; IC50 [6]: 2 nM; IC50 [7]: 3 nM; IC50 [8]: 695 nM; IC50 [9]: 478 nM; IC50 [10]: 2 nM; IC50 [11]: 2 nM |
|  | CCc1cc2c(cc1-c1ccoc1)C(C)(C)c1[nH]c3cc(C#N)ccc3c1C2=O [Compound 11, 9-ethyl-8-(furan-3-yl)-6,6-dimethyl-11-oxo-6,11-dihydro-5H-benzo[b]carbazole-3-carbonitrile] | 8 | 6 |  |
|  | CCc1cc2c(cc1[C@@H](O)CO)C(C)(C)c1[nH]c3cc(C#N)ccc3c1C2=O [Compound 22, (R)-8-(1,2-dihydroxyethyl)-9-ethyl-6,6-dimethyl-11-oxo-6,11-dihydro-5H-benzo[b]carbazole-3-carbonitrile] | 39 | 4 |  |
|  | CCc1cc2c(cc1C(=O)O)C(C)(C)c1[nH]c3cc(C#N)ccc3c1C2=O [Compound 24, 3-cyano-9-ethyl-6,6-dimethyl-11-oxo-6,11-dihydro-5H-benzo[b]carbazole-8-carboxylic acid] | 39 | 57 |  |
|  | CCc1cc2c(cc1-c1cccs1)C(C)(C)c1[nH]c3cc(C#N)ccc3c1C2=O [Compound 12, 9-ethyl-6,6-dimethyl-11-oxo-8-(thiophen-2-yl)-6,11-dihydro-5H-benzo[b]carbazole-3-carbonitrile] | 10 | 12 |  |
| 4.75 | CCc1cc2c(cc1-c1cnn(C(=O)N(C)C)c1)C(C)(C)c1[nH]c3cc(C#N)ccc3c1C2=O [Compound 36, 4-(3-cyano-9-ethyl-6,6-dimethyl-11-oxo-6,11-dihydro-5H-benzo[b]carbazol-8-yl)-N,N-dimethyl-1H-pyrazole-1-carboxamide] | 0 | 0 | IC50 [2]: 23.6 nM |
|  | CCc1cc2c(cc1/C=C/CN1CCOCC1)C(C)(C)c1[nH]c3cc(C#N)ccc3c1C2=O [Compound 25, (E)-9-ethyl-6,6-dimethyl-8-(3-morpholinoprop-1-en-1-yl)-11-oxo-6,11-dihydro-5H-benzo[b]carbazole-3-carbonitrile] | 103 | 93 |  |
| 2.53 | CCc1cc2c(cc1-c1cncnc1)C(C)(C)c1[nH]c3cc(C#N)ccc3c1C2=O [Compound 16, 9-ethyl-6,6-dimethyl-11-oxo-8-(pyrimidin-5-yl)-6,11-dihydro-5H-benzo[b]carbazole-3-carbonitrile] | 4 | 3 | IC50 [2]: 12.5 nM |

| SMILES | IC50 [3] [nM] | Percent viability of untreated control, G1202R [1] [%] | Percent viability of untreated control, wt [4] [%] | also measured |
| --- | --- | --- | --- | --- |
| CCc1cc2c(cc1-c1ccc(S(=O)(=O)F)cc1)C(C)(C)c1[nH]c3cc(C#N)ccc3c1C2=O [Compound 38, 4-(3-cyano-9-ethyl-6,6-dimethyl-11-oxo-6,11-dihydro-5H-benzo[b]carbazol-8-yl)benzenesulfonyl fluoride] | 41 |  |  |  |
